In ChEMBL document CHEMBL5050844 (2019):

Tests used:
Format in all cases: functional, T cell line
[1] = Induction of anti-CD3/CD28 antibodies-stimulated human T cell activation at 4 uM assessed fold increase in IL-2 secretion measured by ELISA assay
[2] = Induction of anti-CD3/CD28 antibodies-stimulated human T cell activation at 1 uM assessed fold increase in IL-2 secretion measured by ELISA assay
[3] = Induction of anti-CD3/CD28 antibodies-stimulated human T cell activation at 0.3 uM assessed fold increase in IL-2 secretion measured by ELISA assay
[4] = Induction of anti-CD3 antibodies-stimulated human T cell activation at 8 uM assessed fold increase in IL-2 secretion measured by ELISA assay; further: reference of the scale not given here
[5] = Induction of anti-CD3 antibodies-stimulated human T cell activation at 1 uM assessed fold increase in IL-2 secretion measured by ELISA assay; further: reference of the scale not given here
[6] = Induction of anti-CD3/CD28 antibodies-stimulated human T cell activation at 4 uM assessed fold increase in CD25 expression measured by ELISA assay
[7] = Induction of anti-CD3/CD28 antibodies-stimulated human T cell activation at 1 uM assessed fold increase in CD25 expression measured by ELISA assay
[8] = Induction of anti-CD3/CD28 antibodies-stimulated human T cell activation at 0.3 uM assessed fold increase in CD25 expression measured by ELISA assay
[9] = Induction of anti-CD3 antibodies-stimulated human T cell activation at 8 uM assessed fold increase in CD25 expression measured by ELISA assay; further: reference of the scale not given here
[10] = Induction of anti-CD3 antibodies-stimulated human T cell activation at 1 uM assessed fold increase in CD25 expression measured by ELISA assay; further: reference of the scale not given here

Row | SMILES | fold change (FC) [1] | fold change (FC) [2] | fold change (FC) [3] | fold change (FC) [4] | fold change (FC) [5] | fold change (FC) [6] | fold change (FC) [7] | fold change (FC) [8] | fold change (FC) [9] | fold change (FC) [10]
1 | C[C@H](Cc1nncn1C)c1cccc(NC(=O)c2cc(S(C)(=O)=O)cc(C3CC3)n2)c1 | 1.01 | 1.01 | 1.01 | >=0.201 | 0.101 | <=1 | 1.01 | 1.01 | >=1.001 | 0.801
2 | C[C@H](Cc1nncn1C)c1cccc(N2Cc3c(Br)cccc3C2=O)c1 | >=7.5 | 5 | 2.51 | >=0.201 | >=0.201 | 1.51 | 1.31 | 1.01 | 0.801 | 0.801
3 | C[C@H](Cc1nocc1C(F)(F)F)c1cccc(N2Cc3c(cc(C(=O)N4CC[C@H](O)C4)cc3C(F)(F)F)C2=O)c1 | 2.51 | 1.01 | 1.01 | >=0.201 | 0.051 | 1.31 | 1.01 | 1.01 | >=1.001 | 0.601
4 | C[C@H](Cc1nncn1C)c1cccc(NC(=O)c2[nH]nc3c2CCCC3)c1 | 1.01 | 1.01 | 1.01 | 0.051 | 0.051 | 1.01 | 1.01 | 1.01 | 0.801 | 0.601
5 | C[C@H](Cc1nncn1C)c1cccc(N2Cc3c(ccnc3C(F)(F)F)C2=O)c1 | 5 | 2.51 | 1.01 | >=0.201 | 0.101 | 1.01 | 1.01 | 1.01 | >=1.001 | 0.801
6 | Cn1cnnc1C(F)(F)[C@@](C)(F)c1cccc(N2Cc3c(cc(CN4CC[C@H](F)C4)cc3C(F)(F)F)C2=O)c1 | 1.01 | <=1 | <=1 | 0.051 | 0.051 | 1.01 | <=1 | <=1 | 0.801 | 0.601
7 | CC1OCC1Oc1cc([C@H](C)Cc2nncn2C)cc(N2Cc3c(cccc3C(F)(F)F)C2=O)n1 (stereo not given in full) | 1.01 | 1.01 | 1.01 | 0.101 | 0.051 | 1.01 | 1.01 | 1.01 | 0.601 | 0.601
8 | C[C@H](Sc1nncn1C)c1cccc(NC(=O)c2ccnc(C(F)(F)F)n2)c1 | 1.01 | 1.01 | 1.01 | 0.051 | <=0.05 | 1.01 | 1.01 | 1.01 | 0.801 | 0.601
9 | Cc1cccc2nc(C(=O)Nc3cccc([C@H](C)Sc4nncn4C)c3)ccc12 | >=7.5 | 5 | 2.51 | 0.101 | <=0.05 | 1.01 | 1.01 | 1.01 | 0.801 | 0.801
10 | Cn1cnnc1CC1(c2cccc(NC(=O)c3ccnc(C(F)(F)F)n3)c2)COC1 | 2.51 | 2.51 | 1.01 | 0.151 | 0.051 | 1.01 | 1.01 | 1.01 | >=1.001 | 0.601
11 | C[C@H](Sc1nncn1C)c1cccc(NC(=O)c2cc3c(Cl)cccc3[nH]2)c1 | 2.51 | 1.01 | 1.01 | >=0.201 | <=0.05 | 1.01 | 1.01 | <=1 | 0.801 | 0.601
12 | C[C@H](Cc1nncn1C)c1cccc(NC(=O)c2cc(S(N)(=O)=O)cc(C(F)(F)F)n2)c1 | 1.01 | <=1 | <=1 | 0.051 | <=0.05 | 1.01 | 1.01 | 1.01 | >=1.001 | 0.801
13 | C[C@H](Sc1nncn1C)c1cccc(NC(=O)c2cc(C3(O)COC3)cc(C(F)(F)F)n2)c1 | <=1 | <=1 | <=1 | <=0.05 | <=0.05 | 1.01 | 1.01 | <=1 | 0.601 | <=0.6
14 | C[C@H](Cc1nncn1C)c1cccc(NC(=O)c2cnn3cccnc23)c1 | 1.01 | 1.01 | 1.01 | 0.051 | 0.051 | 1.01 | <=1 | <=1 | 0.601 | 0.601
15 | Cn1cnnc1C(F)(F)[C@](C)(F)c1cccc(N2Cc3c(cc(-c4cncc(F)c4)cc3C(F)(F)F)C2=O)c1 | 2.51 | 2.51 | 1.01 | 0.151 | 0.101 | 1.01 | 1.01 | <=1 | 0.801 | 0.601
16 | C[C@H](Sc1nncn1C)c1ccnc(NC(=O)c2cc3c(C(F)(F)F)cccc3[nH]2)c1 | 1.01 | 1.01 | 1.01 | <=0.05 | <=0.05 | <=1 | <=1 | <=1 | <=0.6 | <=0.6
